Results taken from US9267945B2, “Diagnosis of multiple sclerosis” (Yeda Research and Development Co. Ltd., priority 2008, dated 2016).

How the values were obtained:
EAE in C57BL/6 mice = test: EAE induced with MOG35-55; assay type: in vivo
Procedure: EAE was induced in C57BL/6 mice with MOG35-55, and 15-ketocholestene, 15-ketocholestane and 15α-hydroxycholestene were administered at days 0, 4, 7 and 10 after EAE induction (10 μg/mice). AIQ was administered intraperitoneally (60 μg/mice) on daily basis. The course of EAE in these mice is shown as the mean EAE score+s.e.m. (MOG35-55 n=22, MOG35-55+oxChol n=24, MOG35-55+oxChol+AIQ n=18).
Spinal cords were taken on day 19 and stained with hematoxylin and eosin, luxol fast blue or silver stain to quantify the cellular infiltrate, demyelination and axonal loss, respectively. Each column represents the mean±SEM resulting from the analysis of at least 8 sections. Administration of oxChol enhanced EAE as measured clinically (FIG. 4A, P<0.0001, two-way ANOVA), and augmented inflammatory infiltrates (FIG. 4B; P<0.05, one-way ANOVA), demyelination (FIG. 4C; P<0.01, one-way ANOVA) and axonal loss (FIG. 4D; P<0.001, one-way ANOVA); these effects were inhibited by treatment with AIQ (P<0.001, one-way ANOVA).

[1] = system: T cell responses to MOG35-55; test: T cell responses to MOG35-55 in EAE mice; assay type: cell-based; settings: EAE mice given oxChol and AIQ
Procedure: Further investigations were performed to determine whether the effect of oxChol on EAE was mediated by PARP.

[2] = system: IgG reactivity to PLP261-277; test: Inhibition of RRMS serum IgG reactivity on antigen microarray by pre-incubation with free peptide; assay type: binding, human; settings: RRMS sera 1:10 dilution, excess unbound peptide, FIG. 1C
Procedure: RRMS or healthy controls (HC) serum samples were hybridized on antigen microarrays at different concentrations and the mean IgG (FIG. 1A) and IgM (FIG. 1B) reactivity to the CNS, HSP or lipid antigens spotted on the microarrays were measured. Results are presented as mean±SEM of the IgG or IgM reactivity for CNS, HSP or lipid antigens at each dilution. *P<0.05, **P<0.01 and ***P<0.001 (two-way ANOVA) when compared to HC samples tested at the same dilution.
The chips were washed with PBS, blocked for 1 h at 37° C. with 1% BSA, and incubated for 2 hours at 37° C. with a 1:10 dilution of the test serum in blocking buffer under a coverslip in a humid environment. The arrays were then washed and incubated for 45 min at 37° C. with a 1:500 dilution mixture of goat anti-human IgG Cy3-conjugated antibody and a goat anti-human IgM conjugated to Cy5, (both purchased from Jackson ImmunoResearch, West Grove, Pa. The arrays were scanned with a ScanArray 4000× scanner (GSI Luminomics, Billerica, Mass., USA) and the IgM and IgG results were recorded separately. The results were recorded as TIFF files.

Row | Compound | inflammatory infiltrates in spinal cord (EAE in C57BL/6 mice; day 19, hematoxylin and eosin, FIG. 4B) | demyelination in spinal cord (EAE in C57BL/6 mice; day 19, luxol fast blue, FIG. 4C) | axonal loss in spinal cord (EAE in C57BL/6 mice; day 19, silver stain, FIG. 4D) | EAE measured clinically (mean EAE score) (EAE in C57BL/6 mice; oxChol 10 μg/mice days 0, 4, 7, 10, AIQ 60 μg/mice i.p. daily, FIG. 4A, P<0.0001) | T cell responses to MOG35-55 as measured by cytokines (IFN-γ and IL-17) or proliferation [1] | reactivity to PLP261-277 on the antigen array after pre-incubation of the serum with peptide [2]
1 | Nc1cccc2c(=O)[nH]ccc12 [AIQ, 5-Aminoisoquinolinone] | inhibited | inhibited | inhibited | abrogated the worsening of EAE | did not affect | 
2 | PLP261-277: proteolipid protein peptide 261-277, used unbound as competitor (ATYNFAVLKLMGRGTKF) |  |  |  |  |  | inhibited
